In a melting point compilation (Tetko et al.; mined from patent text by program, amines drawn as free bases though some values may be those of a salt):

| melting point | Structure (SMILES) |
| --- | --- |
| 108 to 109 °C | CCOC(=O)C1OC1C(=O)NC(CC(C)C)C(OC)c1ccccc1 (stereo not given) |
| 189 to 191 °C | CC1CCN(Cc2ccc(COc3cccc4c3CN(C3CCC(=O)NC3=O)C4=O)cc2)CC1 (stereo not given) |
| > 25 °C | CSc1cc2c(cc1C(F)(F)F)N(C(=O)Nc1ccc(-c3csc(-c4cccnc4)n3)cc1)CC2 |
| 131 to 132 °C | Cn1ncc2c1CC(C)(C)C(C=O)C2=O (stereo not given) |
| > 245 °C | N#Cc1cnc2sc(-c3cccc(C=O)c3)cc2c1Nc1cccc2[nH]ccc12 |
| 94 to 95 °C | COC(=O)C1=Cc2cc(Br)ccc2SCC1 |
| > 300 °C | COc1nc2cc(Br)cc(CNC(=O)C(=O)O)c2nc1OC |
| 112 to 115 °C | COc1ccc(-n2nnnc2C(F)(F)F)cc1CN[C@H]1CCN(C(=O)CNC(C)=O)C[C@H]1c1ccccc1 |
| 240 to 241 °C | O=C(O)Cn1c(-c2ccc(C(F)(F)F)cc2)nc2cccnc21 |
| 103 to 105 °C | CC(C#CC1CC(Oc2ccc(OC(F)(F)F)cc2)C1)N(O)C(N)=O (single isomer, unassigned; (+)) |
| 186 to 187 °C | COc1cc2c(cc1OC)C(=O)C(=Cc1cccc([N+](=O)[O-])c1)CC2 |
| 132 to 134 °C | O=C(Cl)c1sc2cc(OCc3ccccc3)ccc2c1Cl |
| 58 to 60 °C | C[C@@H](C(N)=O)c1ccc(NS(=O)(=O)c2cccs2)cc1 |
| 111 to 112 °C | O=[N+]([O-])c1ccc(-c2cccs2)cc1-c1cccs1 |
| 150 °C | CC(C(=O)O)c1ccc(C2CCCCC2)c2ccccc12 (stereo not given) |
| 196 to 198 °C | COC(=O)c1cc(-c2ccc(OCc3ccccc3)cc2)n(-c2ccc(S(N)(=O)=O)cc2)n1 |
| 154 to 156 °C | COc1cc(Cc2sc3ccccc3c2S(=O)(=O)Nc2onc(C)c2Br)cc(OC)c1OC |
| 240 °C | Cc1ccccc1-c1c(NC(=O)Nc2c(C(C)C)cccc2C(C)C)oc2ccc(Cl)cc12 |
| 116 to 117 °C | CCOC(=O)Cc1nc(-c2ccc(F)cc2)oc1-c1cccs1 |
| 155 to 159 °C | O=C(N[C@H](CC1CCCCC1)CN1CCN(c2nccc3ccccc23)CC1)C1CCCCC1 |
| 164 to 166 °C | CC12CC(=O)C3C(CCC4C(Br)C(O)CCC43C)C1CCC2C(=O)CBr (stereo not given) |
| 274 to 276 °C | O=C(O)CCC(=O)N1CCc2cc(S(=O)(=O)N3CCN(c4cccc(C(F)(F)F)c4)CC3)ccc21 |

| melting point | Structure (SMILES) |
| --- | --- |
| 82 to 83 °C | CCOC(=O)C(NC(C)=O)(C(=O)OCC)c1ccc([N+](=O)[O-])cn1 |
| 82 to 85 °C | COC(=O)C(C)Oc1c(C#N)cnn1-c1ccc(C(F)(F)F)cc1Cl (stereo not given) |
| 180 °C | COc1ccc(OC)c(C2(OC)C(=O)Nc3ccc(Cl)cc32)c1 (stereo not given) |
| 135 to 137 °C | CCCCc1nc(C)n2nc(S)nc2c1Cc1ccc(-c2ccccc2)c(-c2nnn[nH]2)c1 |
| 155 to 157 °C | CCOCn1nccc1C(O)c1ccc(OC)c(Cl)c1Cl (stereo not given) |
| 112 to 115 °C | C#CC(C)(C)N1CCC(N2CCN(CCCN3CCCCC3)C2=C(C#N)C#N)CC1 |
| 110 °C | COCCCN1CCC(CNC(=O)c2cc(Cl)c(N)c(OC)c2OC)C(O)C1 (stereo not given) |
| 144 to 146 °C | CC(=O)NC[C@H]1CN(c2ccc(N3CCC(Cc4noc(-c5ccccc5)n4)CC3)c(F)c2)C(=O)O1 |
| 252 to 254 °C | O=C1CCCC2=C1C(c1ccccc1)C1=C(CCCC1)N2 (stereo not given) |
| 229 to 231 °C | CNC(=O)CC1CCN(Cc2cnc3c(C)c(NC(=O)c4ccc(-c5ccc(F)cc5)cc4)ccc3c2)CC1 |
| 172 to 174 °C | C=CCOc1ccc(C(C)(C)C)cc1C(C(N)=O)c1ccccc1 (stereo not given) |
| 124 to 126 °C | Cc1cccc(NC(=O)CN2CCN(c3ncccc3C#N)CC2)c1C |
| 143 to 145 °C | CC1=C(c2ccc(OCC(=O)O)c(Cl)c2Cl)CCCC1=O |
| 178 to 180 °C | O[C@@H]1CCN(Cc2nc(-c3ccc4c(c3)Nc3ccccc3S4)cs2)C1 |
| 54 °C | CCOC(=O)C(C)=Cc1cc(F)c(F)c(F)c1 |
| 134 to 136 °C | COc1ccc(F)cc1OCCN1C(=O)c2ccccc2C1=O |
| 167 °C | O=C(Nc1ccc(SC(F)(F)F)cc1)c1ccc2c(c1O)CCCC2 |
| 181 to 183 °C | CN1CCN(C2=Nc3ccccc3N3CCCc4cc(Br)cc2c43)CC1 |
| 188 to 189 °C | COc1nc(C)nc2c1-c1ccc(Cl)cc1C(c1ccccc1F)=NC2 |
| 165 °C | CCOC(=O)c1ncn2c1nc(N1CCOCC1)c1ccccc12 |
| 120 °C | OC1CCC(Nc2nc(Cl)nc(Cl)n2)CC1 (stereo not given) |
| 224 to 227 °C | CCCNC(=O)C(C)=Cc1ccc2ccn(Cc3ccc(C(=O)NS(=O)(=O)c4ccccc4C)cc3OC)c2c1 |

| melting point | Structure (SMILES) |
| --- | --- |
| 250 °C | NC(=O)N1C(=O)C(C(=O)c2cccs2)c2cnccc21 (stereo not given) |
| 250 to 251 °C | N#Cc1cnc2c(sc3ccccc32)c1Nc1ccc(Cl)cc1F |
| 136 to 137 °C | COc1ccc(C2=CC(=O)CC2)cc1OC1CCCC1 |
| 133 to 135 °C | O=S(=O)(NN=C(Cl)c1ccc(F)cc1Cl)c1ccccc1 |
| 126 to 128 °C | COc1cc(OC)nc(C(=O)c2nccc(-c3ccccc3)c2C(=O)n2ccnc2)c1 |
| 174 to 175 °C | Cn1cc(-c2cccc(C(F)(F)F)c2)c(=O)c(C2CCCCC2)c1 |
| 98 to 100 °C | CC(C)(C)c1nc(C=CC(=O)COc2ccccc2)nc(C(C)(C)C)c1O |
| 148 °C | CCOC(=O)c1ccc(-c2ccc(Cl)cc2)[nH]1 |
| 168 °C | CC(C)(C)C(=O)Nc1ccccc1CC1NCCc2ccccc21 (stereo not given) |
| 164 to 165 °C | Oc1cccc(-c2nc(COc3ccc(CCCn4ccnc4)cc3)co2)c1 |
| 110 °C | C[C@H](NC(=O)OC(C)(C)C)C(=O)OC[C@@H]1CCCN1c1cccc2c1C(=O)c1ccccc1C2=O |
| 207 °C | CCCC1=C(C(=O)OCC)C(c2cccc3nonc23)c2c[nH]nc2N1 (stereo not given) |
| 155 to 157 °C | Cn1c(-c2cc(C(F)(F)F)nn2-c2ncccc2Cl)nc2c(Cl)cccc2c1=O |
| 174 to 175 °C | Cc1nc2c(O[C@H]3c4ccccc4C[C@@H]3O)cccn2c1CO |
| 59 to 60 °C | Nc1c(Cl)cc(C(O)CNCCCCCCOCCCCCCc2cncnc2)cc1Cl (stereo not given) |
| 118 to 121 °C | O=C1N(Cc2ccc(NC3CCNC3)cc2)c2ccccc2C12COc1cc3c(cc12)OCO3 (stereo not given) |
| 87 to 90 °C | CCN(CC)CCNc1nc(N2CCCC2)nc2ccccc12 |
| 243 to 244 °C | CCn1cc(C(=O)O)c(=O)cc1-c1ccc(NC)c(C)c1 |
| 111 to 113 °C | CCOC(=O)C(=Cc1ccccc1)S(=O)(=O)NC(C)(C)C |
| > 395 °C | Cc1cc(C)c2c(O)c3c(=O)[nH][nH]c(=O)c3nc2c1 |
| 75 °C | CCCCCCCCCCC(NC(=O)NC12CC3CC(CC(C3)C1)C2)C(=O)OC (stereo not given) |
| 134 to 135 °C | Cc1nc(Cl)c(C#N)cc1-c1ccccc1 |

| Structure (SMILES) | melting point |
| --- | --- |
| CNC(=O)Oc1ccc(N=Cc2ccccc2O)c2ccccc12 | 143 to 146 °C |
| N#CCc1cc(F)c(OCc2ccccc2)c(OCc2ccccc2)c1 | 120 to 121 °C |
| Nc1c(F)c(N2CCNCC2)cc2c1c(=O)c(C(=O)O)cn2C1CC1 | 214 to 216 °C |
| COc1ccc2c3cc(C(=O)NCCc4ccc(Cl)cc4)ccc3n(CC3CCCCC3)c2c1 | 179 to 181 °C |
